The subject of assay [1] is IC/BPS model rats. As to the kind of experiment: Cystometry (intravesical pressure and urination volume) in HCl-induced IC/BPS model rats. It counts as in vivo, rat. On the procedure:
Through the catheter, 250 μL of saline (Sham group) or 250 μL of 0.1 M HCl (IC group) was instilled into the bladder and held for 1 minute, and then the bladder was washed twice with saline. The Sham and IC groups were each divided into two groups (n=7-8/group), and 200 μL of saline or 200 μL of RGDS peptide solution (500 mg/L saline solution, MedChemExpress) was administered intraperitoneally. On day 7 after administration, a polyethylene catheter was inserted and retained in the apex of the bladder, and a pressure transducer (MLT0699, ADInstruments Ltd, Dunedin, New Zealand), PowerLab 4/26 (ADInstruments Ltd, Dunedin New Zealand) were connected. A syringe pump (YSP-101, YMC Co., Ltd., Kyoto, Japan) was connected to the pressure transducer to measure intravesical pressure and urination volume while continuously instilling 40 μL/min saline solution into the bladder. The pressure at the urination event peak on the cystometrogram was defined as the maximum intravesical pressure, the peak interval as the urination interval, the pressure immediately after the peak as the basal intravesical pressure, the pressure immediately before the peak as the threshold pressure for urination, and the urination volume at the peak as urine volume per urination event.
A similar study to Example 1 was conducted, except that the RGDS peptide used in Example 1 was replaced with 400 μL of cilengitide solution (6.75 g/L saline solution, Tokyo Kasei). In the cilengitide-administered group, the urination interval was prolonged compared to the group that received instillation of saline (FIG. 3), confirming that frequent urination was ameliorated.

The subject of assay [2] is IC/BPS model rats. Description: Pain threshold by electronic von Frey filament on lower abdomen in IC/BPS model rats. It counts as in vivo, rat. The settings on record: IC+R group vs IC group; day 5 after administration; average of three measurements; FIG. 4. On the procedure:
Sham, IC, and IC+R groups were prepared as in Example 1. On day 5 after administration, the rats were placed in a metabolic cage with a wire mesh bottom and allowed to acclimate for 10 minutes, and the lower abdomen was stimulated with increasing pressure using an electronic von Frey filament (BIO-EVF, Bioseb, Vitrolles, France). The pressure at which an escape response was observed was measured as the pain threshold. This measurement was repeated three times with a 5-minute interval, and the average was calculated. The pain threshold increased in the IC+R group compared to the IC group (FIG. 4), confirming an ameliorating trend of pain.

Setting [3] is: among Sham, Sham+R, IC, IC+R groups, 200 μL RGDS peptide solution (500 mg/L) intraperitoneally, day 7.

Regarding `CC(C)[C@H]1C(=O)N[C@@H](CCCN=C(N)N)C(=O)NCC(=O)N[C@@H](CC(=O)O)C(=O)N[C@H](Cc2ccccc2)C(=O)N1C` [cilengitide], the urination interval result in assay [1] (cilengitide-administered IC group vs saline group, 400 μL cilengitide solution (6.75 g/L saline), FIG. 3) is recorded as “prolonged”.
For the compound RGDS [RGDS peptide], in assay [1] (IC+R group vs IC group given saline, 200 μL RGDS peptide solution (500 mg/L saline) intraperitoneally, day 7 after administration, FIGS. 1 and 2), the urination interval entry is “significantly prolonged”. In assay [1] (setting [3]), the basal intravesical pressure result was “did not differ among all groups”, the maximum intravesical pressure result was “did not differ among all groups” and the “threshold pressure for urination” value is on record as “did not differ among all groups”. In addition, the “pain threshold (pressure at which an escape response was observed)” value in assay [2] is listed as “increased”.

The values are drawn from patent US20240382558A1, “PHARMACEUTICAL COMPOSITION FOR PREVENTING OR TREATING INTERSTITIAL CYSTITIS/BLADDER PAIN SYNDROME” (priority 2022, published 2024).
